Test results taken from patent US11154529B2, “Phosphaplatin liquid formulations” (Phosplatin Therapeutics Inc., priority 2016, dated 2021).

How the values were obtained:
Type in all cases: physicochemical
[1] = Precipitation of (R,R)-pyrodach-2 dimer from 5 mg/mL ready-to-use formulation on storage at 2-8° C.; conditions: 5 mg/mL formulation per Example 6, initial dimer ~0.6 area %
Experimental: • Transfer 4564.6 mg±0.5 mg of potassium phosphate dibasic, trihydrate to a 2-L volumetric flask. • Fill flask to approximately 75% volume with water, swirl as needed to dissolve all solids. • Volumetrically transfer 32.0 mL of 1N KOH to flask. • Dilute flask to volume with water and mix well. • Record pH of final solution. This is the diluent. • Transfer 7653.1 mg±0.5 mg of (R,R)-pyrodach-2 to a compounding vessel. • Transfer 1500 mL of the diluent to the vessel and stir to dissolve solids. • Record pH of final solution. • Pass entire solution through a 0.22 μm sterile filter membrane into a sterile collection vessel. • Calculate (R,R)-pyrodach-2 solution concentration

[2] = Ready-to-use formulation stability at 25° C./60% RH, 5 mg/mL (R,R)-pyrodach-2 in 10 mM Sodium Phosphate Buffer, 5.2 mM Sodium Pyrophosphate at pH 7.5, 10 mL vials
Experimental: Stability data on the formulation with added pyrophosphate at 40° C./75% RH in Table 12 is even more dramatic. […] [table] [table] • Transfer 1419.6 mg±14.0 mg of dibasic sodium phosphate anhydrous to a 1-L volumetric flask. • Transfer 2298.5 mg±23.0 mg of tetrasodium pyrophosphate decahydrate into the same 1-L volumetric flask. • Fill flask to approximately 75% volume with sterile water for injection, swirl as needed to dissolve all solids. • Volumetrically transfer 8.0 mL of 1N NaOH to flask. • Dilute flask to volume with water and mix well. • Record the pH of final solution. This is the vehicle. • Determine the tare weight of a 500-mL compounding vessel with stir bar. • Transfer 2500.1 mg±25.0 mg of (R,R)-pyrodach-2 to the vessel. • Transfer 450.0 g±0.1 g of the vehicle to the vessel and stir to dissolve solids. • Determine the initial pH of the solution. • Slowly adjust the pH of the solution to 7.5±0.1 by adding additional N NaOH. • Determine the gross solution weight and dilute the solution weight to 500.0 g±0.1 g by adding additional vehicle into the compounding vessel. Density=1.00 g/mL. • Stir the final solution for an additional 5 minutes. • Determine the pH of final solution. • Pass the entire solution through a 0.22 μm PVDF Stericup filter into a sterile collection vessel. • Conduct the following in a laminar flow hood; fill 10-mL sterile tubing vials with 10 mL of solution, stoppered with a sterile Flurotec stopper, and crimp-capped with a flip-off seal. • Place vials in 40° C./75% RH and 25° C./60% RH stability chambers. HPLC method in Example 3 to monitor purity and impurities.

[3] = Hydrolytic degradation of (R,R)-pyrodach-2 in aqueous solution; conditions: acidic aqueous conditions
From the text: Thus, simple dissolution of (R,R)-pyrodach-2 affords an acidic solution. […] At higher pHs, where the acid groups of (R,R)-pyrodach-2 are ionized, the solubility of (R,R)-pyrodach-2 increases. In addition, deprotonation of the acid groups in (R,R)-pyrodach-2 dramatically reduces the rate of hydrolytic degradation. The two pKa values of (R,R)-pyrodach-2 indicate that an aqueous solution of (R,R)-pyrodach-2 in the physiological pH range of 7.0-7.5 will have no buffering capacity. Thus, controlling the pH of an aqueous solution in the physiological pH range, much less the accurate and reproducible preparation of aqueous (R,R)-pyrodach-2 solutions in this pH range by pH adjustment of an aqueous solution of (R,R)-pyrodach-2 with hydroxide base, is extremely difficult. […] This presents a unique challenge as the pyrophosphate ligand in (R,R)-pyrodach-2 is kinetically labile in solution and can potentially undergo reaction with anions present in many buffers. Table 1 summarizes the decrease in potency measured by HPLC of aqueous 1 mg/mL (R,R)-pyrodach-2 solutions in a variety of buffers at ambient temperature.

With `O=P1(O)OP(=O)(O)[O][Pt]2([NH][C@@H]3CCCC[C@H]3[NH]2)[O]1` (stereo partly drawn) [(R,R)-pyrodach-2, (R,R)-trans-1,2-cyclohexanediamine-(dihydrogenpyrophosphato)platinum(II)] the “time by which crystallization observed in all sample vials” value [1] was no more than 12 months, the “Individual Related Substances RRT 0.28-0.29” value ([2]; 1 Month) was 0.10% and the “Individual Related Substances RRT 0.50-0.51” value ([2]; 1 Month) was 0.08%. The “Individual Related Substances RRT 0.58” value ([2]; 1 Month) was 0.39%, the “Individual Related Substances RRT 0.73-0.74” value ([2]; 1 Month) was 0.71% and the “Potency (Assay)” value ([2]; 1 Month) was 102.2%. The “Total Related Substances” value ([2]; 1 Month) was 1.3%, the pH ([2]; 1 Month) was 7.6 and the “Individual Related Substances RRT 0.28-0.29” value ([2]; 2 Months) was 0.20%. The “Individual Related Substances RRT 0.50-0.51” value ([2]; 2 Months) was 0.15%, the “Individual Related Substances RRT 0.58” value ([2]; 2 Months) was 0.38% and the “Individual Related Substances RRT 0.73-0.74” value ([2]; 2 Months) was 0.92%. For the same compound, the “Potency (Assay)” value ([2]; 2 Months) was 103.8%, the “Total Related Substances” value ([2]; 2 Months) was 1.6% and the pH ([2]; 2 Months) was 7.6. The “Individual Related Substances RRT 0.28-0.29” value ([2]; 3 Months) was 0.17%, the “Individual Related Substances RRT 0.50-0.51” value ([2]; 3 Months) was 0.11% and the “Individual Related Substances RRT 0.58” value ([2]; 3 Months) was 0.43%. For the same compound, the “Individual Related Substances RRT 0.73-0.74” value ([2]; 3 Months) was 0.88%, the “Potency (Assay)” value ([2]; 3 Months) was 101.4% and the “Total Related Substances” value ([2]; 3 Months) was 1.6%. For the same compound, the pH ([2]; 3 Months) was 7.6, the “Individual Related Substances RRT 0.28-0.29” value ([2]; 6 Months) was 0.17% and the “Individual Related Substances RRT 0.50-0.51” value ([2]; 6 Months) was 0.12%. For the same compound, the “Individual Related Substances RRT 0.58” value ([2]; 6 Months) was 0.44%, the “Individual Related Substances RRT 0.73-0.74” value ([2]; 6 Months) was 0.81% and the “Potency (Assay)” value ([2]; 6 Months) was 102.8%. The “Total Related Substances” value ([2]; 6 Months) was 1.5%, the pH ([2]; 6 Months) was 7.6 and the “Individual Related Substances RRT 0.28-0.29” value ([2]; 9 Months) was 0.18%. The “Individual Related Substances RRT 0.50-0.51” value ([2]; 9 Months) was 0.21%, the “Individual Related Substances RRT 0.58” value ([2]; 9 Months) was 0.42% and the “Individual Related Substances RRT 0.73-0.74” value ([2]; 9 Months) was 0.27%. For the same compound, the “Potency (Assay)” value ([2]; 9 Months) was 101.7%, the “Total Related Substances” value ([2]; 9 Months) was 1.20% and the pH ([2]; 9 Months) was 7.6. The “Individual Related Substances PT-112 Dimer” value ([2]; Initial) was 0.16%, the “Individual Related Substances RRT 0.28-0.29” value ([2]; Initial) was 0.14% and the “Individual Related Substances RRT 0.50-0.51” value ([2]; Initial) was 0.08%. The “Individual Related Substances RRT 0.58” value ([2]; Initial) was 0.34%, the “Individual Related Substances RRT 0.73-0.74” value ([2]; Initial) was 0.83% and the “Individual Related Substances RRT 0.92” value ([2]; Initial) was 0.05%. The “Individual Related Substances RRT 1.57” value ([2]; Initial) was 0.12%, the “Potency (Assay)” value ([2]; Initial) was 102.0% and the “Total Related Substances” value ([2]; Initial) was 1.7%. The pH ([2]; Initial) was 7.5 and the hydrolytic degradation [3] was “rapidly undergoes hydrolytic degradation”.
